Source: patent US6777426B2, “Imidazole and imidazoline derivatives and uses thereof” (Synaptic Pharmaceutical Corporation, priority 1997, dated 2004)
Where a name gives a salt, the structure may show the parent alone. Read-outs that look alike come from different tables or passages of the source.

Columns and labels:
[1] = target: T1, human α2a adrenergic receptor (Homo sapiens, UniProt P08913); experiment: Equilibrium competition binding, [3H]rauwolscine, cloned human α2a; conditions: cloned human α2a, membrane preparations, [3H]rauwolscine; read-out: α2a pKi (converted)
T1 construct: expressed in transfected cells; host or cells: LM(tk−) cells (L-α2A, ATCC CRL-11180), vector pCEXV-3
T1 sequence (P08913 1-465): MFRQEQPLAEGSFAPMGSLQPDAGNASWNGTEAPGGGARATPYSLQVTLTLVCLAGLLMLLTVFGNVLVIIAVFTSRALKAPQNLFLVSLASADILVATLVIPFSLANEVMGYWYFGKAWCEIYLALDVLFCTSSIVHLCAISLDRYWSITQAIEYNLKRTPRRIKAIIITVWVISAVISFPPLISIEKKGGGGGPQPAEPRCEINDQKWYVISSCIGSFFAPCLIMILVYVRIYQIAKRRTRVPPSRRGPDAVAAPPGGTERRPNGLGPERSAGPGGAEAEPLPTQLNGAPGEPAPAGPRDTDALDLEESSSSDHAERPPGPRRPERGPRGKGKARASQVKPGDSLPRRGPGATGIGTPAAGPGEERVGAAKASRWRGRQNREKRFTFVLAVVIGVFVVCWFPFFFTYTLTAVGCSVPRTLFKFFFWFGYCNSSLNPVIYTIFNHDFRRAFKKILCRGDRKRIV
Experimental: (§1) Binding and functional assays were performed using stably transfected cells expressing human α adrenergic receptors. Equilibrium competition binding assays were performed with membrane preparations from cultured LM(tk−) cells stably transfected with the cloned human adrenoceptor subtypes except for a21, which was expressed In Y-1 cells, using [^3H]prazosin for α1 receptors and [^3H]rauwolscine for […].
(§2) These cell lines were prepared by transfecting cloned cDNA or cloned genomic DNA or constructs containing both genomic DNA and cDNA encoding the human a adrenergic receptors as described below.
The insert housing this coding region was a 2.5 kb Kpnl/HindIII human placenta genomic fragment which was end-blunted by either T4 polymerase or Klenow fragment of DNA polymerase. Stable cell lines were obtained by to-transfection with the plasmid pGCcos3neo (plasmid containing the α2a receptor gene) and the plasmid pGCcos3neo (plasmid containing the aminoglycoside transferase gene) into LM(tk−), CHO, and NIH3T3 cells, using calcium phosphate technique. The cells were grown in a controlled environment (37° C., 5% CO2) as monolayers in Dulbecco's modified Eagle's Medium (GIBCO, Grand Island, N.Y.) containing 25 mM glucose and supplemented with 10% bovine calf serum, 100 units/mL penicillin g, and […] streptomycin sulfate.
(§3) The stable cell lines described above were scraped from culture flasks into 5 mL of 5 mM Tris-HCl, […], pH 7.5, and lysed by sonication. The cell lysates were centrifuged at 1,000 rpm for 5 min. at 4° C., and the supernatant was centrifuged at 30,000×g for 20 min. at 4° C. The pellet was suspended in 50 mM Tris-HCl, 1 mM MgCl2, and 0.1% ascorbic acid at pH 7.5. Binding of the α2 antagonist [^3H]rauwolscine (0.5 nM) or the α1 antagonist [^3H]prazosin (0.5 nM) to membrane preparations of LM(tk−) cells was done in a final volume of 0.25 mL and incubated at 37° C. for 20 min. Nonspecific binding was determined in the presence of […]. The reaction was stopped by filtration through GF/B filters using a cell harvester.

[2] = target: T2, human α2b adrenergic receptor (Homo sapiens, UniProt P18089); experiment: Equilibrium competition binding, [3H]rauwolscine, cloned human α2b; conditions: cloned human α2b, membrane preparations, [3H]rauwolscine; read-out: α2b pKi (converted)
T2 construct: expressed in transfected cells; host or cells: stably transfected cells, vector pcEXV-3; deposited line L-NGC-α2B (ATCC CRL-10275)
T2 sequence (P18089 1-450): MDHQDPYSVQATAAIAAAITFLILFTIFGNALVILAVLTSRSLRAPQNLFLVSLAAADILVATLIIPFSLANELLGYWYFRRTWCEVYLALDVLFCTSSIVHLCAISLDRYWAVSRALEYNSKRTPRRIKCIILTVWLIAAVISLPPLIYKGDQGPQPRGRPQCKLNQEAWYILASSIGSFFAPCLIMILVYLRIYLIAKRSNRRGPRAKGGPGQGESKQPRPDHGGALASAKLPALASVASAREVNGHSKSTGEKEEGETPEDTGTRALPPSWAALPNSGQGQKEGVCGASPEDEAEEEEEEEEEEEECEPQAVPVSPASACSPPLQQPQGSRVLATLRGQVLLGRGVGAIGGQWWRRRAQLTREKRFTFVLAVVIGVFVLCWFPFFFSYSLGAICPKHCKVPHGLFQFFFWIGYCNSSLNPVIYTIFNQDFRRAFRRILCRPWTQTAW
Experimental: as §1, §2
Stable cell lines were selected as described above.
as §3

[3] = target: T3, human α2c adrenergic receptor (Homo sapiens, UniProt P18825); experiment: Equilibrium competition binding, [3H]rauwolscine, cloned human α2c; conditions: cloned human α2c, membrane preparations, [3H]rauwolscine; read-out: α2c pKi (converted)
T3 construct: The entire coding region of α2c (1383 bp), including 2 bp of 5′ UT and 400 bp of 3′ UT; expressed in transfected cells; host or cells: LM(tk−) cells (L-α2c, ATCC CRL-11181), vector pCEXV-3
T3 sequence (P18825 1-462): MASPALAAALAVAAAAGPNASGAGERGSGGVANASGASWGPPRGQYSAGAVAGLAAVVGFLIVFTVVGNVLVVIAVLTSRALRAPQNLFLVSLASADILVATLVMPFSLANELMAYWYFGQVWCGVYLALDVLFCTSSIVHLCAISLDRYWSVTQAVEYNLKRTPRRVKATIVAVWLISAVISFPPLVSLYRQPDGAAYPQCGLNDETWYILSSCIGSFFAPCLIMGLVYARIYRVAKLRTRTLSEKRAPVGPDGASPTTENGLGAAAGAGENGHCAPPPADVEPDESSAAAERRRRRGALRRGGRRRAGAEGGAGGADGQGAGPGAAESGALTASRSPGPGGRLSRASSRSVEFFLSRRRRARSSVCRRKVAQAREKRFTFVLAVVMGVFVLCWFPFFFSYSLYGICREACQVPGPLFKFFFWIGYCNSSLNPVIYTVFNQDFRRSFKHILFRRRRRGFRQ
Experimental: as §1, §2
The insert housing this coding region was a 1.8 kb Ncol/EcoR1 human spleen genomic fragment which was end-blunted by either T4 polymerase or Klenow fragment of DNA polymerase. Stable cell lines were selected as described above.
as §3

[4] = target: T1, human α2a adrenergic receptor; experiment: α2 agonist activity: inhibition of forskolin-stimulated cAMP synthesis, α2a cells; assay type: cell-based
Experimental: as §1, §2
(§4) The agonist activity (expressed as pEC50) was measured as a function of the ability to inhibit the forskolin-stimulated synthesis of cyclic adenosine monophosphate (cAMP). The stably transfected cells were incubated in Ham's F10 with 5 mM theophylline, 10 mM HEPES, 17 mM pargyline, and/or appropriate concentrations of forskolin for 20 min. at 37° C. in 5% CO2. The tested compounds were then added to a final concentration of 0.001 nM to 1 mM and incubated for an additional 15 min. at 37° C. in 5% CO2. The medium was aspirated and the reaction was stopped by the addition of 100 mM HCl. […] The plates were stored at 4° C. for 15 min. and assayed to determine the linear concentration of cAMP. The appropriate dilution was interpolated from the standard curve of cold cAMP. The assessment of cAMP formation was determined by radioimmunoassay (cAMP radioimmunoassay kit; Advanced magnetics, Cambridge, Mass.). Radioactivity was quantified using a Packard COBRA Auto Gamma counter equipped with data reduction software.

[5] = target: T2, human α2b adrenergic receptor; experiment: α2 agonist activity: inhibition of forskolin-stimulated cAMP synthesis, α2b cells; assay type: cell-based; conditions: inhibition of forskolin-stimulated cAMP, cloned human α2b; for EC50: read-out: α2b pEC50 (converted)
Experimental: as §1, §2, §4

[6] = target: T3, human α2c adrenergic receptor; experiment: α2 agonist activity: inhibition of forskolin-stimulated cAMP synthesis, α2c cells; assay type: cell-based; conditions: inhibition of forskolin-stimulated cAMP, cloned human α2c; for EC50: read-out: α2c pEC50 (converted)
Experimental: as §1, §2, §4

Row | SMILES | Ki [1] [nM] | Ki [2] [nM] | Ki [3] [nM] | EC50 [4] [nM] | α2a IA (Intrinsic Activity) ([4]; inhibition of forskolin-stimulated cAMP, cloned human α2a) | α2b IA (Intrinsic Activity) [5] | EC50 [5] [nM] | α2c IA (Intrinsic Activity) [6] | EC50 [6] [nM] | melting point [°C] | EC50 ([4]; inhibition of forskolin-stimulated cAMP, cloned human α2a, read-out: α2a pEC50 (converted)) [nM]
1 | c1cc2c(cc1NC1=NCCN1)CCC2 [Example 1, 2-(5-Indanylamino)-2-imidazoline] | 1.15 | 2.88 | 13.8 | 14.8 | (0.48) | (0.53) | 36.3 | (1.00) | 11.5 | 41 to 42 | –
2 | CC(c1c[nH]cn1)c1cc(-c2ccccc2)nc2ccccc12 (stereo not shown) [Example 36, 4-[1-(1H-Imidazol-4-yl)-ethyl]-2-phenyl-quinoline dihydrochloride] | 2.69 | 40.7 | 16.2 | – | – | – | 2820 | – | 7.24 | – | 10000
